Where a SMILES comes first, the peptide text is derived from it. Bridges are numbered along the chain shown (N, C = ends). [ ]: non-standard residue; d: D form. Trp(1-Me) = Cn1cc(C[C@H](N)C(=O)O)c2ccccc21; Bta = N[C@@H](Cc1csc2ccccc12)C(=O)O; Hyp = O=C(O)[C@@H]1C[C@@H](O)CN1; NMeNle = CCCC[C@H](NC)C(=O)O; Pip = O=C(O)[C@@H]1CCCCN1; NMeA = CN[C@@H](C)C(=O)O; Dap = NC[C@H](N)C(=O)O
The molecules below were run against T1, Human PD-L1/PD-1 (Homo sapiens, UniProt Q9NZQ7) (assay: HTRF Human PD-L1/PD-1 binding assay (PD-1-Ig/PD-L1-His)). Settings: PD-L1-His 10 nM, PD-1-Ig 20 nM; class symbol; read-out: HTRF Human PD-L1/PD-1 Binding Assay IC50 Range.
T1 construct: TVMV protease cleavage site (C); made in house; host or cells: HEK293T cells
Method in brief: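 Soluble HEK293T-expressed proteins: hPD-L1-His 10 nM, hPD-1-Ig 20 nM final. Cpd + PD-L1 15 min, + PD-1 15 min, + Eu anti-Ig 1 nM/APC anti-His 20 nM 30 min. Buffer dPBS, 0.1% BSA, 0.05% Tween-20. TR-FRET 665/620.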

T1 sequence (Q9NZQ7 with tags, fused parts or gaps): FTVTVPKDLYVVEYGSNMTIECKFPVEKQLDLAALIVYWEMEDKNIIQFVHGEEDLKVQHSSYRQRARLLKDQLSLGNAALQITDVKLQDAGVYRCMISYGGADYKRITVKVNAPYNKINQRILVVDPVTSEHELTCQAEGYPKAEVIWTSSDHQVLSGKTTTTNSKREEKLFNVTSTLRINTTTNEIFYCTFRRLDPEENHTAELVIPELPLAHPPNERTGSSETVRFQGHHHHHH

| SMILES | IC50 |
| --- | --- |
| CCCC[C@H]1C(=O)N(C)[C@@H](CCCC)C(=O)N[C@@H](CCC(=O)O)C(=O)N[C@H](C(=O)NCC(N)=O)CSCC(=O)N[C@@H](Cc2ccc(O)cc2)C(=O)N(C)[C@@H](C)C(=O)N[C@@H](CC(=O)O)C(=O)N2CCC[C@H]2C(=O)N[C@@H](Cc2cnc[nH]2)C(=O)N[C@@H](CCC(N)=O)C(=O)N2C[C@H](O)C[C@H]2C(=O)N[C@@H](Cc2c[nH]c3ccccc23)C(=O)N[C@@H](CO)C(=O)N[C@@H](Cc2cn(C)c3ccccc23)C(=O)N1C [Example 1500] ({CH2CO}-Y[NMeA]DPHQ[Hyp]WS[Trp(1-Me)][NMeNle][NMeNle]ECG-NH2; thioether N-14) | 1 to 9.9 nM |
| CCCC[C@H]1C(=O)N(C)[C@@H](CCCC)C(=O)N[C@@H](C)C(=O)N[C@H](C(=O)NCC(N)=O)CSCC(=O)N[C@@H](Cc2ccc(O)cc2)C(=O)N(C)[C@@H](C)C(=O)N[C@@H](CC(=O)O)C(=O)N2CCC[C@H]2C(=O)N[C@@H](Cc2c[nH]cn2)C(=O)N[C@@H](CCC(N)=O)C(=O)N2C[C@H](O)C[C@H]2C(=O)N[C@@H](Cc2c[nH]c3ccccc23)C(=O)N[C@@H](CO)C(=O)N[C@@H](Cc2cn(C)c3ccccc23)C(=O)N1C [Example 1501] ({CH2CO}-Y[NMeA]DPHQ[Hyp]WS[Trp(1-Me)][NMeNle][NMeNle]ACG-NH2; thioether N-14) | 10 to 99.9 nM |
| CCCC[C@H]1C(=O)N(C)[C@@H](CCCC)C(=O)N[C@@H](C)C(=O)N[C@H](C(=O)NCC(N)=O)CSCC(=O)N[C@@H](Cc2ccc(O)cc2)C(=O)N2CCCC[C@H]2C(=O)N[C@@H](CC(=O)O)C(=O)N2CCC[C@H]2C(=O)N[C@@H](Cc2cnc[nH]2)C(=O)N[C@@H](CCC(N)=O)C(=O)N2C[C@H](O)C[C@H]2C(=O)N[C@@H](Cc2c[nH]c3ccccc23)C(=O)N[C@@H](CO)C(=O)N[C@@H](Cc2cn(C)c3ccccc23)C(=O)N1C [Example 1502] ({CH2CO}-Y[Pip]DPHQ[Hyp]WS[Trp(1-Me)][NMeNle][NMeNle]ACG-NH2; thioether N-14) | 10 to 99.9 nM |
| CCCC[C@H]1C(=O)N(C)[C@@H](CCCC)C(=O)N[C@@H](CC(C)C)C(=O)N[C@H](C(=O)NCC(N)=O)CSCC(=O)N[C@@H](Cc2ccc(O)cc2)C(=O)N(C)[C@@H](C)C(=O)N[C@@H](CC(=O)O)C(=O)N2CCC[C@H]2C(=O)N[C@@H](Cc2cnc[nH]2)C(=O)N[C@@H](CCC(N)=O)C(=O)N2C[C@H](O)C[C@H]2C(=O)N[C@@H](Cc2c[nH]c3ccccc23)C(=O)N[C@@H](CO)C(=O)N[C@@H](Cc2cn(C)c3ccccc23)C(=O)N1C [Example 1503] ({CH2CO}-Y[NMeA]DPHQ[Hyp]WS[Trp(1-Me)][NMeNle][NMeNle]LCG-NH2; thioether N-14) | 1 to 9.9 nM |
| CCCC[C@H]1C(=O)N(C)[C@@H](CCCC)C(=O)N[C@@H](CCC(=O)O)C(=O)N[C@H](C(=O)NCC(N)=O)CSCC(=O)N[C@@H](Cc2ccc(O)cc2)C(=O)N2CCCC[C@H]2C(=O)N[C@@H](CC(N)=O)C(=O)N2CCC[C@H]2C(=O)N[C@@H](Cc2cnc[nH]2)C(=O)N[C@@H](CCC(=O)O)C(=O)N2C[C@H](O)C[C@H]2C(=O)N[C@@H](Cc2c[nH]c3ccccc23)C(=O)N[C@@H](CO)C(=O)N[C@@H](Cc2cn(C)c3ccccc23)C(=O)N1C [Example 1504] ({CH2CO}-Y[Pip]NPHE[Hyp]WS[Trp(1-Me)][NMeNle][NMeNle]ECG-NH2; thioether N-14) | 10 to 99.9 nM |
| CCCC[C@H]1C(=O)N(C)[C@@H](CCCC)C(=O)N[C@@H](CCC(=O)O)C(=O)N[C@H](C(=O)NCC(N)=O)CSCC(=O)N[C@@H](Cc2ccc(O)cc2)C(=O)N2CCCC[C@H]2C(=O)N[C@@H](CC(=O)O)C(=O)N2CCC[C@H]2C(=O)N[C@@H](Cc2cnc[nH]2)C(=O)N[C@@H](CCC(=O)O)C(=O)N2C[C@H](O)C[C@H]2C(=O)N[C@@H](Cc2c[nH]c3ccccc23)C(=O)N[C@@H](CO)C(=O)N[C@@H](Cc2cn(C)c3ccccc23)C(=O)N1C [Example 1505] ({CH2CO}-Y[Pip]DPHE[Hyp]WS[Trp(1-Me)][NMeNle][NMeNle]ECG-NH2; thioether N-14) | 1 to 9.9 nM |
| CCCC[C@H]1C(=O)N(C)[C@@H](CCCC)C(=O)N[C@@H](CCC(=O)O)C(=O)N[C@H](C(=O)NCC(N)=O)CSCC(=O)N[C@@H](Cc2ccc(O)cc2)C(=O)N2CCCC[C@H]2C(=O)N[C@@H](CC(=O)O)C(=O)N2CCC[C@H]2C(=O)N[C@@H](CO)C(=O)N[C@@H](CCC(N)=O)C(=O)N2C[C@H](O)C[C@H]2C(=O)N[C@@H](Cc2c[nH]c3ccccc23)C(=O)N[C@@H](CO)C(=O)N[C@@H](Cc2csc3ccccc23)C(=O)N1C [Example 1506] ({CH2CO}-Y[Pip]DPSQ[Hyp]WS[Bta][NMeNle][NMeNle]ECG-NH2; thioether N-14) | 1 to 9.9 nM |
| CCCC[C@H]1C(=O)N(C)[C@@H](CCCC)C(=O)N[C@@H](C)C(=O)N[C@H](C(=O)NCC(N)=O)CSCC(=O)N[C@@H](Cc2ccc(O)cc2)C(=O)N2CCCC[C@H]2C(=O)N[C@@H](CC(=O)O)C(=O)N2CCC[C@H]2C(=O)N[C@@H](CN)C(=O)N[C@@H](CCC(N)=O)C(=O)N2C[C@H](O)C[C@H]2C(=O)N[C@@H](Cc2c[nH]c3ccccc23)C(=O)N[C@@H](CO)C(=O)N[C@@H](Cc2csc3ccccc23)C(=O)N1C [Example 1507] ({CH2CO}-Y[Pip]DP[Dap]Q[Hyp]WS[Bta][NMeNle][NMeNle]ACG-NH2; thioether N-14) | 1 to 9.9 nM |
| CCCC[C@H]1C(=O)N(C)[C@@H](CCCC)C(=O)N[C@@H](C)C(=O)N[C@H](C(=O)NCC(N)=O)CSCC(=O)N[C@@H](Cc2ccc(O)cc2)C(=O)N2CCCC[C@H]2C(=O)N[C@@H](CC(=O)O)C(=O)N2CCC[C@H]2C(=O)N[C@@H](Cc2cnc[nH]2)C(=O)N[C@@H](CCC(N)=O)C(=O)N2C[C@H](O)C[C@H]2C(=O)N[C@@H](Cc2c[nH]c3ccccc23)C(=O)N[C@@H](CO)C(=O)N[C@@H](Cc2csc3ccccc23)C(=O)N1C [Example 1508] ({CH2CO}-Y[Pip]DPHQ[Hyp]WS[Bta][NMeNle][NMeNle]ACG-NH2; thioether N-14) | 1 to 9.9 nM |
| CCCC[C@H]1C(=O)N(C)[C@@H](CCCC)C(=O)N[C@@H](C)C(=O)N[C@H](C(=O)NCC(N)=O)CSCC(=O)N[C@@H](Cc2ccc(O)cc2)C(=O)N2CCCC[C@H]2C(=O)N[C@@H](CC(=O)O)C(=O)N2CCC[C@H]2C(=O)N[C@@H](Cc2cnc[nH]2)C(=O)N[C@@H](CCC(N)=O)C(=O)N2C[C@H](O)C[C@H]2C(=O)N[C@@H](Cc2c[nH]c3ccccc23)C(=O)N[C@@H](CO)C(=O)N[C@@H](Cc2csc3ccccc23)C(=O)N1C [Example 1509] ({CH2CO}-Y[Pip]DPHQ[Hyp]WS[Bta][NMeNle][NMeNle]ACG-NH2; thioether N-14) | 10 to 99.9 nM |
| CCCC[C@H]1C(=O)N(C)[C@@H](CCCC)C(=O)N[C@@H](C)C(=O)N[C@H](C(=O)NCC(N)=O)CSCC(=O)N[C@@H](Cc2ccc(O)cc2)C(=O)N2CCCC[C@H]2C(=O)N[C@@H](CC(=O)O)C(=O)N2CCC[C@H]2C(=O)N[C@@H](CN)C(=O)N[C@@H](CCC(=O)O)C(=O)N2C[C@H](O)C[C@H]2C(=O)N[C@@H](Cc2c[nH]c3ccccc23)C(=O)N[C@@H](CO)C(=O)N[C@@H](Cc2csc3ccccc23)C(=O)N1C [Example 1510] ({CH2CO}-Y[Pip]DP[Dap]E[Hyp]WS[Bta][NMeNle][NMeNle]ACG-NH2; thioether N-14) | 1 to 9.9 nM |
